These results are taken from ChEMBL document CHEMBL5442175, “EUbOPEN Chemogenomics Library - PDSP Secondary Binding” (2024).

The structures appear in SMILES notation. A value given as a limit tells only on which side of the number the result lay.

The target in assay [1] is Sodium-dependent serotonin transporter (Homo sapiens, UniProt P31645). Put plainly: PDSP Secondary Binding target: SLC6A4 - Compounds are tested at 10 uM concentration, plate are incubated at room temperature in the dark for 90 minutes. Reaction are stopped by vacuum filtration onto 0.3% polyethyleneimine soaked filter mats using Filtermate harvester. Scintillation cocktail is then melted onto microwave-dried filters on a hot plate and the radio activity is counted in Microbia counter.
Sodium-dependent serotonin transporter, sequence (P31645 whole entry): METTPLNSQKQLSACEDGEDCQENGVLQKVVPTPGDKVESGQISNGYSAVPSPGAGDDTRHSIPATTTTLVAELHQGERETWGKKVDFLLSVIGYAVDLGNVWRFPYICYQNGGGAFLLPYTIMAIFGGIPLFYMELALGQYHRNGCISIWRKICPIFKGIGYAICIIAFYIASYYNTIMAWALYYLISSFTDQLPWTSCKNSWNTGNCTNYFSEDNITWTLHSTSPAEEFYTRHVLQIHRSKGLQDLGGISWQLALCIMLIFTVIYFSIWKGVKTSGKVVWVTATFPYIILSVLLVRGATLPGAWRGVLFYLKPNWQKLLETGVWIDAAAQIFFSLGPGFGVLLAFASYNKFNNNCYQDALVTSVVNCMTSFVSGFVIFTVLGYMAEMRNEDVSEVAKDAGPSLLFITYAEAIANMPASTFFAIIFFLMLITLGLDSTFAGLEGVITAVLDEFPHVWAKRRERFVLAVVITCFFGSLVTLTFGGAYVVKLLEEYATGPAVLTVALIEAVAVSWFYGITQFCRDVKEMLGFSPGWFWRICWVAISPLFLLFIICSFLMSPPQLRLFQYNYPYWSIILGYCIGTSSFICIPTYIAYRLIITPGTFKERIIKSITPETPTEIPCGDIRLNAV

Another assay addresses Mu-type opioid receptor (Homo sapiens, UniProt P35372). Briefly: PDSP Secondary Binding target: OPRM1 - Compounds are tested at 10 uM concentration, plate are incubated at room temperature in the dark for 90 minutes. Reaction are stopped by vacuum filtration onto 0.3% polyethyleneimine soaked filter mats using Filtermate harvester. Scintillation cocktail is then melted onto microwave-dried filters on a hot plate and the radio activity is counted in Microbia counter.

The target of assay [2] is Sigma intracellular receptor 2 (Homo sapiens, UniProt Q5BJF2). Put plainly: PDSP Secondary Binding target: TMEM97 - Compounds are tested at 10 uM concentration, plate are incubated at room temperature in the dark for 90 minutes. Reaction are stopped by vacuum filtration onto 0.3% polyethyleneimine soaked filter mats using Filtermate harvester. Scintillation cocktail is then melted onto microwave-dried filters on a hot plate and the radio activity is counted in Microbia counter.
Sigma intracellular receptor 2, sequence (Q5BJF2 whole entry): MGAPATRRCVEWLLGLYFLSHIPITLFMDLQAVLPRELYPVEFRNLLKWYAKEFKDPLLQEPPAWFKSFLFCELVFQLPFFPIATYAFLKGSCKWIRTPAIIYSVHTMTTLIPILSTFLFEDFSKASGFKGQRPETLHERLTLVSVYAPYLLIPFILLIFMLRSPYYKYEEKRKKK

Assay [3] addresses Sodium-dependent noradrenaline transporter (Homo sapiens, UniProt P23975). Put plainly: PDSP Secondary Binding target: SLC6A2 - Compounds are tested at 10 uM concentration, plate are incubated at room temperature in the dark for 90 minutes. Reaction are stopped by vacuum filtration onto 0.3% polyethyleneimine soaked filter mats using Filtermate harvester. Scintillation cocktail is then melted onto microwave-dried filters on a hot plate and the radio activity is counted in Microbia counter.

The target in assay [4] is Beta-3 adrenergic receptor (Homo sapiens, UniProt P13945). Briefly: PDSP Secondary Binding target: ADRB3 - Compounds are tested at 10 uM concentration, plate are incubated at room temperature in the dark for 90 minutes. Reaction are stopped by vacuum filtration onto 0.3% polyethyleneimine soaked filter mats using Filtermate harvester. Scintillation cocktail is then melted onto microwave-dried filters on a hot plate and the radio activity is counted in Microbia counter.
Beta-3 adrenergic receptor, sequence (P13945 whole entry): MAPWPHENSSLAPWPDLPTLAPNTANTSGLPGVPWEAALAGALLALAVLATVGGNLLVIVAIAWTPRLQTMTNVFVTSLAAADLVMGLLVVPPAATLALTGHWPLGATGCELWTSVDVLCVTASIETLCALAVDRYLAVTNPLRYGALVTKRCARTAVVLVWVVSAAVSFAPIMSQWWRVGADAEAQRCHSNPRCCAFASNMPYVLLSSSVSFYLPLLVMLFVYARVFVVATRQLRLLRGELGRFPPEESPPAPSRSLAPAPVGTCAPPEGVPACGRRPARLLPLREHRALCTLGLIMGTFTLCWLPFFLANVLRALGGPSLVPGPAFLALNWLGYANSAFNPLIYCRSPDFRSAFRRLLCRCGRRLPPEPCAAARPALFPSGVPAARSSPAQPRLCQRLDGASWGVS

Assay [5] addresses Sigma non-opioid intracellular receptor 1 (Homo sapiens, UniProt Q99720). Briefly: PDSP Secondary Binding target: SIGMAR1 - Compounds are tested at 10 uM concentration, plate are incubated at room temperature in the dark for 90 minutes. Reaction are stopped by vacuum filtration onto 0.3% polyethyleneimine soaked filter mats using Filtermate harvester. Scintillation cocktail is then melted onto microwave-dried filters on a hot plate and the radio activity is counted in Microbia counter.

In assay [6] the target is T1, Alpha-1B adrenergic receptor (Homo sapiens, UniProt P35368).
T1 sequence (P35368 whole entry): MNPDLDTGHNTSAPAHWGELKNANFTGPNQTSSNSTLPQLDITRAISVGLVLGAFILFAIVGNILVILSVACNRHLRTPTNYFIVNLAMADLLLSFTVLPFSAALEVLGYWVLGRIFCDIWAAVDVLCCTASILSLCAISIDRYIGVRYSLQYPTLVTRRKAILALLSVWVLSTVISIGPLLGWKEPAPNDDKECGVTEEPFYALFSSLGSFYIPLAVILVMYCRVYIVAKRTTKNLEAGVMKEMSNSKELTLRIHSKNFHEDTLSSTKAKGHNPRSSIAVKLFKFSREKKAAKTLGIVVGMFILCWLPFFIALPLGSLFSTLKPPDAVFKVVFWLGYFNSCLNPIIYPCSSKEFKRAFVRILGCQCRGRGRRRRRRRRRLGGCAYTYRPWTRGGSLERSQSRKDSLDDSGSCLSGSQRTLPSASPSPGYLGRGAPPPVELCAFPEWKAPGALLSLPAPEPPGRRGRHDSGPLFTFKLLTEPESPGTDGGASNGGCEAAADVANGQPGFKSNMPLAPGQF
Briefly: PDSP Secondary Binding target: ADRA1B - Compounds are tested at 10 uM concentration, plate are incubated at room temperature in the dark for 90 minutes. Reaction are stopped by vacuum filtration onto 0.3% polyethyleneimine soaked filter mats using Filtermate harvester. Scintillation cocktail is then melted onto microwave-dried filters on a hot plate and the radio activity is counted in Microbia counter.

The target of assay [7] is T2, Alpha-1D adrenergic receptor (Homo sapiens, UniProt P25100).
T2 sequence (P25100 whole entry): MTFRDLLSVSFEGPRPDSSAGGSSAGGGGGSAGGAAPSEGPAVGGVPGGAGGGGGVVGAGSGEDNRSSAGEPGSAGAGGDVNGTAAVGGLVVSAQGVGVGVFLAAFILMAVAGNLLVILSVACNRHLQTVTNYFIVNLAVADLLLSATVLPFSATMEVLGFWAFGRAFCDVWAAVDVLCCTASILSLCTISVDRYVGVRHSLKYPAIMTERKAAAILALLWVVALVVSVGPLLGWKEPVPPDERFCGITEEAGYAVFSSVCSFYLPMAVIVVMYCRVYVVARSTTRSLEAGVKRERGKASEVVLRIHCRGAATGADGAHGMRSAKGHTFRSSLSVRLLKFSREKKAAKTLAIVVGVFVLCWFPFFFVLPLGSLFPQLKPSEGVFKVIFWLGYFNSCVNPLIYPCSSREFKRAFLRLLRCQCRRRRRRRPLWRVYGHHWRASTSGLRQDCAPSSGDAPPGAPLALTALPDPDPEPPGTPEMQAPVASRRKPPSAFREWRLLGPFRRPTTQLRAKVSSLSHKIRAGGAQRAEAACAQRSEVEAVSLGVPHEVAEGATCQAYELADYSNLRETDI
Put plainly: PDSP Secondary Binding target: ADRA1D - Compounds are tested at 10 uM concentration, plate are incubated at room temperature in the dark for 90 minutes. Reaction are stopped by vacuum filtration onto 0.3% polyethyleneimine soaked filter mats using Filtermate harvester. Scintillation cocktail is then melted onto microwave-dried filters on a hot plate and the radio activity is counted in Microbia counter.

A further assay addresses Translocator protein (Homo sapiens, UniProt P30536). Briefly: PDSP Secondary Binding target: TSPO - Compounds are tested at 10 uM concentration, plate are incubated at room temperature in the dark for 90 minutes. Reaction are stopped by vacuum filtration onto 0.3% polyethyleneimine soaked filter mats using Filtermate harvester. Scintillation cocktail is then melted onto microwave-dried filters on a hot plate and the radio activity is counted in Microbia counter.

For assay [8], the target named is T3, Alpha-2B adrenergic receptor (Homo sapiens, UniProt P18089).
T3 sequence (P18089 whole entry): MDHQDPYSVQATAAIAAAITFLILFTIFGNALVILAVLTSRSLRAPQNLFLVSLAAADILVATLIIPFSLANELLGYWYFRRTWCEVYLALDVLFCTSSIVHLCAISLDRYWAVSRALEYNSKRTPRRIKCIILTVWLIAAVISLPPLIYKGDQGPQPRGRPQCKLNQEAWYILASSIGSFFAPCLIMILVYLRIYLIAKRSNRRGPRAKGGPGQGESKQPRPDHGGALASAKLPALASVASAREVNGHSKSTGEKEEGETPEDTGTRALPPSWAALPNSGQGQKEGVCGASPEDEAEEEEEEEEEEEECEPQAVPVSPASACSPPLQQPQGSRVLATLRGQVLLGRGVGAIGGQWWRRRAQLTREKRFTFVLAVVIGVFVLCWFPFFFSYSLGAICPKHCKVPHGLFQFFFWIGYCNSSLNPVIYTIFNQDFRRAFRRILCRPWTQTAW
Briefly: PDSP Secondary Binding target: ADRA2B - Compounds are tested at 10 uM concentration, plate are incubated at room temperature in the dark for 90 minutes. Reaction are stopped by vacuum filtration onto 0.3% polyethyleneimine soaked filter mats using Filtermate harvester. Scintillation cocktail is then melted onto microwave-dried filters on a hot plate and the radio activity is counted in Microbia counter.

The target in assay [9] is Sodium-dependent dopamine transporter (Homo sapiens, UniProt Q01959). Put plainly: PDSP Secondary Binding target: SLC6A3 - Compounds are tested at 10 uM concentration, plate are incubated at room temperature in the dark for 90 minutes. Reaction are stopped by vacuum filtration onto 0.3% polyethyleneimine soaked filter mats using Filtermate harvester. Scintillation cocktail is then melted onto microwave-dried filters on a hot plate and the radio activity is counted in Microbia counter.
Sodium-dependent dopamine transporter, sequence (Q01959 whole entry): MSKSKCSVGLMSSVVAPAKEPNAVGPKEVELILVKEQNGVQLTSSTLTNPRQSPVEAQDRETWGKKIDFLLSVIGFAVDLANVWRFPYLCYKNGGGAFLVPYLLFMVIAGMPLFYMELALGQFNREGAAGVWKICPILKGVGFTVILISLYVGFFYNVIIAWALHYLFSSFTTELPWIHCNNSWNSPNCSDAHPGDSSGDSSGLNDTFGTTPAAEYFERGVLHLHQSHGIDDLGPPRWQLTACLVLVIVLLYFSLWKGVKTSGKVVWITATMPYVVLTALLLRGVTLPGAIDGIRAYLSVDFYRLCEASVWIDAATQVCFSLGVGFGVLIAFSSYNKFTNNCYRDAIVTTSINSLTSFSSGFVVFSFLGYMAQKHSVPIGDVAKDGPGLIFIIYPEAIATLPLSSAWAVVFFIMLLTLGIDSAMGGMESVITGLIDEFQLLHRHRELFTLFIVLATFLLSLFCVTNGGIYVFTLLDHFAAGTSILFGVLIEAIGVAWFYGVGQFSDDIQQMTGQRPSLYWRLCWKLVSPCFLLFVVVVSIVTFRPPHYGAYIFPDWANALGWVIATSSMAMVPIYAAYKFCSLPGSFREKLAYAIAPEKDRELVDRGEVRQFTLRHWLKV

Assay [10] concerns the target Kappa-type opioid receptor (Homo sapiens, UniProt P41145). Put plainly: PDSP Secondary Binding target: OPRK1 - Compounds are tested at 10 uM concentration, plate are incubated at room temperature in the dark for 90 minutes. Reaction are stopped by vacuum filtration onto 0.3% polyethyleneimine soaked filter mats using Filtermate harvester. Scintillation cocktail is then melted onto microwave-dried filters on a hot plate and the radio activity is counted in Microbia counter.

The target in a further assay is D(3) dopamine receptor (Homo sapiens, UniProt P35462). Put plainly: PDSP Secondary Binding target: DRD3 - Compounds are tested at 10 uM concentration, plate are incubated at room temperature in the dark for 90 minutes. Reaction are stopped by vacuum filtration onto 0.3% polyethyleneimine soaked filter mats using Filtermate harvester. Scintillation cocktail is then melted onto microwave-dried filters on a hot plate and the radio activity is counted in Microbia counter.
D(3) dopamine receptor, sequence (P35462 whole entry): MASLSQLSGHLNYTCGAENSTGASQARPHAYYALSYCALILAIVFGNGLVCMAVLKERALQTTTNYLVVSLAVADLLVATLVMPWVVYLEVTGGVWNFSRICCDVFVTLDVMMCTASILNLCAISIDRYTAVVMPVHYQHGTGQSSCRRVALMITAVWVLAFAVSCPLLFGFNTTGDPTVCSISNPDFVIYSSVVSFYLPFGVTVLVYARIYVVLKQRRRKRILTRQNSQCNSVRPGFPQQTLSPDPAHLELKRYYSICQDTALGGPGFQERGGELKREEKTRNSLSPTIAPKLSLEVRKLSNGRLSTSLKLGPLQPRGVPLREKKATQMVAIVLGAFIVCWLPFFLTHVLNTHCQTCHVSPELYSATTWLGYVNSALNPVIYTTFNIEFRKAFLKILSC

Assay [11] concerns the target T4, Alpha-2A adrenergic receptor (Homo sapiens, UniProt P08913).
T4 sequence (P08913 whole entry): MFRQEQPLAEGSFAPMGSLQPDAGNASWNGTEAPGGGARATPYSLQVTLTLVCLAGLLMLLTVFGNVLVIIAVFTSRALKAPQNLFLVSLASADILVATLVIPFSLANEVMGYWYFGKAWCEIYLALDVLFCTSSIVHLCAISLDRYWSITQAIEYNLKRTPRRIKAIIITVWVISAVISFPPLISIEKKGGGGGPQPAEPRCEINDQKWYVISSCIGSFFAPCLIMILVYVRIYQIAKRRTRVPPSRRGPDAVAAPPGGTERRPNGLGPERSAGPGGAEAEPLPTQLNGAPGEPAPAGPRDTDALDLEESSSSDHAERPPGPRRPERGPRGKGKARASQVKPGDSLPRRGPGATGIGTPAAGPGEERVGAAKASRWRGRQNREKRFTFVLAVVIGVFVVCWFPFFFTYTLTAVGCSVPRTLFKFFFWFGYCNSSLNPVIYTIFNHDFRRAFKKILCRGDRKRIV
Briefly: PDSP Secondary Binding target: ADRA2A - Compounds are tested at 10 uM concentration, plate are incubated at room temperature in the dark for 90 minutes. Reaction are stopped by vacuum filtration onto 0.3% polyethyleneimine soaked filter mats using Filtermate harvester. Scintillation cocktail is then melted onto microwave-dried filters on a hot plate and the radio activity is counted in Microbia counter.

Assay [12] concerns the target 5-hydroxytryptamine receptor 2B (Homo sapiens, UniProt P41595). Briefly: PDSP Secondary Binding target: HTR2B - Compounds are tested at 10 uM concentration, plate are incubated at room temperature in the dark for 90 minutes. Reaction are stopped by vacuum filtration onto 0.3% polyethyleneimine soaked filter mats using Filtermate harvester. Scintillation cocktail is then melted onto microwave-dried filters on a hot plate and the radio activity is counted in Microbia counter.

Translocator protein, sequence (P30536 whole entry): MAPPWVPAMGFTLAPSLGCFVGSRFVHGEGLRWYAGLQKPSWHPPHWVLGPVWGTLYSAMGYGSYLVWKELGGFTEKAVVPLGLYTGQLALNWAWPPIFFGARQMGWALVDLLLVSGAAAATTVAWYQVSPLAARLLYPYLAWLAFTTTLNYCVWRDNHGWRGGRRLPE
Sigma non-opioid intracellular receptor 1, sequence (Q99720 whole entry): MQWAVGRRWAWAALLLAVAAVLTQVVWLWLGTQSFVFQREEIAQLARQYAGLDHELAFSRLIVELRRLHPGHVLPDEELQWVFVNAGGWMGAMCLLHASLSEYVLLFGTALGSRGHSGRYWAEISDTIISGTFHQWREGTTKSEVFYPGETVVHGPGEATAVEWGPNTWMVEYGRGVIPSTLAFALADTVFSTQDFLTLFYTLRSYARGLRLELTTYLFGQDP
Sodium-dependent noradrenaline transporter, sequence (P23975 whole entry): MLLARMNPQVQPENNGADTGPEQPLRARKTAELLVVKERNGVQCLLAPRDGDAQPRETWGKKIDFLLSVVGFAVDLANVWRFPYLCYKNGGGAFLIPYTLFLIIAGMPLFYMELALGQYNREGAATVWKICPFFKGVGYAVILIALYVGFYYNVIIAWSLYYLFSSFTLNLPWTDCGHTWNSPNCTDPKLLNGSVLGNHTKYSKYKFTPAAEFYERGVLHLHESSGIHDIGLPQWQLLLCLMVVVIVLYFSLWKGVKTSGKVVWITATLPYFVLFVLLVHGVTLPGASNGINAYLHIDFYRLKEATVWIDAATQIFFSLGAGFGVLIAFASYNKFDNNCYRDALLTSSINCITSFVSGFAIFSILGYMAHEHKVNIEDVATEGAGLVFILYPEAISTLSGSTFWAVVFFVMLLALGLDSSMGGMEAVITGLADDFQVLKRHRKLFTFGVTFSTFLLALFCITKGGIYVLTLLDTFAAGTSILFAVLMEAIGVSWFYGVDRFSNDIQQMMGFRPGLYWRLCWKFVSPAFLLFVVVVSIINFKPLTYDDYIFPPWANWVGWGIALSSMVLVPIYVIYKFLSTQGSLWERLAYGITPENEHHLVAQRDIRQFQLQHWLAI
Mu-type opioid receptor, sequence (P35372 whole entry): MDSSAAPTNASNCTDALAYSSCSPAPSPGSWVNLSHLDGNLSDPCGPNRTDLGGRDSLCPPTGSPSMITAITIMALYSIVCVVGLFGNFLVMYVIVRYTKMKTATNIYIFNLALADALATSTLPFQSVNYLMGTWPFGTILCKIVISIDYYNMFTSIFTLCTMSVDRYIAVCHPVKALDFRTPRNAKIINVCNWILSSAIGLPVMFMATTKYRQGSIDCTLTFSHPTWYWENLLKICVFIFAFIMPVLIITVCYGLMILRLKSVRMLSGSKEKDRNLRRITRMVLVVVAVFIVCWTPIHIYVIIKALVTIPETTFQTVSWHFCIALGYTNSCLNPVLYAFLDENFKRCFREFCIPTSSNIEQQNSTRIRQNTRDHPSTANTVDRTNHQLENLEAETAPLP
Kappa-type opioid receptor, sequence (P41145 whole entry): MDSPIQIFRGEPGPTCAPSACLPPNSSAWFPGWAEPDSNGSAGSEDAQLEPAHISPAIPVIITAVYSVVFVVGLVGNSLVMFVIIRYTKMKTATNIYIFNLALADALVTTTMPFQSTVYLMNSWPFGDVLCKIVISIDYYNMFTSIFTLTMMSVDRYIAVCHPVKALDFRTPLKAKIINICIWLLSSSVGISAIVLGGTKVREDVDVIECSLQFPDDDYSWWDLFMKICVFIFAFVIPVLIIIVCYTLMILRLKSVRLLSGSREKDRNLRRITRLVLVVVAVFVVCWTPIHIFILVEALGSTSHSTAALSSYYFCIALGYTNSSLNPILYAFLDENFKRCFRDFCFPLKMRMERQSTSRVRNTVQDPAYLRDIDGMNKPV
5-hydroxytryptamine receptor 2B, sequence (P41595 whole entry): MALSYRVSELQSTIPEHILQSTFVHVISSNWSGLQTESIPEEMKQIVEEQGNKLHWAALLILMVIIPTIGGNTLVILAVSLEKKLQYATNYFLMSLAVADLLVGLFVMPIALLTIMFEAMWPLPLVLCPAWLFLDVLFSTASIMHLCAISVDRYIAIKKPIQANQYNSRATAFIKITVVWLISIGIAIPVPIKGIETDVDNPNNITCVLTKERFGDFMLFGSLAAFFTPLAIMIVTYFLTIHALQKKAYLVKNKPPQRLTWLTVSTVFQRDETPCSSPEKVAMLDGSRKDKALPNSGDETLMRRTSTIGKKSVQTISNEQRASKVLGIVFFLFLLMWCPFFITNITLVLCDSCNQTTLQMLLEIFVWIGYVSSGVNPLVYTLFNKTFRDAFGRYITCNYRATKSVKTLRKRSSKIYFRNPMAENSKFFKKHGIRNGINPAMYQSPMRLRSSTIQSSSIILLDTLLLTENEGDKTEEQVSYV

As to `C[C@@H](NCCc1ccc(O)cc1)[C@@H](O)c1ccc(O)cc1` (relative stereo), the Ki in assay [1] turned out to be 4050 nM; on Mu-type opioid receptor, 7850 nM; in assay [2] it was 2670 nM; in assay [3], 2580 nM; in assay [4], 3730 nM; in assay [5], 587 nM.
Turning to `Cc1c(OCc2cccc(-c3ccc(C(=O)O)cc3)c2)cc2c(c1C)C(=O)C(C1CCCC1)C2` (stereo not given), the inhibition constant (Ki) in [1] was over 10000 nM; in assay [6] it was over 10000 nM; in [7], over 10000 nM; in assay [4] it was 5050 nM.
As for `Cc1nc(C#Cc2ccnc(Cl)c2)c(C)n1-c1ccc(OC(F)(F)F)cc1`, the Ki is 1950 nM on Translocator protein; 1710 nM in assay [2]; over 10000 nM in assay [8]; 6980 nM in assay [4]; 2690 nM in assay [5].
Turning to `N#Cc1ccc(NC(=O)Nc2ccccc2Br)c2nn[nH]c12`, the inhibition constant (Ki) in [9] is 2850 nM; at Translocator protein it was 3030 nM; in [4] it was 8660 nM.
As for `Cc1csc2c(N[C@@H](C)CN3CCN(S(=O)(=O)c4ccc(Cl)c(Cl)c4)CC3)ncnc12`, the Ki is 494 nM in assay [10]; 799 nM on Translocator protein; 2000 nM in [2]; 581 nM at D(3) dopamine receptor; 8880 nM in [4]; 958 nM in assay [5].
As for `Cc1cc([C@@H](C)Nc2cccc(-c3cc(C)c(C(=O)N[C@@H](C)C(=O)O)c(C)c3)c2)ccc1Cl`, the Ki is 402 nM in assay [9]; 1380 nM on Translocator protein; 1110 nM at D(3) dopamine receptor; over 10000 nM in assay [4]; over 10000 nM in [11]; 2480 nM in [12].
